Data as given in patent US20110020312A1, “METHODS FOR TREATMENT OF METABOLIC DISORDERS USING EPIMETABOLIC SHIFTERS, MULTIDIMENSIONAL INTRACELLULAR MOLECULES, OR ENVIRONMENTAL INFLUENCERS” (priority 2009, published 2011).

Legend:
[1] = system: a variety of cell types; assay: Western blot analysis (Bcl-xL, Vimentin, oxidative phosphorylation and mitochondrial membrane proteins); format: cell-based; conditions: 50 or 100 μM Q10
Description: Approximately 50 μg of protein were assayed per sample by immunoblotting. All treatments were run in triplicate with controls. […] The primary antibodies were incubated overnight at 4 degrees C. in a 5% BSA and TBST solution. Secondary antibodies were incubated for one hour at 4 degrees. All antibodies were purchased from Cell Signaling Technology. Antibodies were used at a ratio of 1:1000, with the exception of PActin at a ratio of 1:5000. Blots were developed and results were quantified using the NIH Java based densitometer analysis software Image J. All blots were also probed for and normalized to their respective PActin expression.
The first experiment processed and evaluated by Western blot and 2-D gel electrophoresis was carried out on the skin cancer cell line SKMEL-28.
A variety of cell types were evaluated by Western blot analysis against an antibody for Bcl-xL (FIG. 14), an antibody for Vimentin (FIG. 15), a series of antibodies for mitochondrial oxidative phosphorylation function (FIGS. 16-21) and against a series of antibodies related to mitochondrial membrane integrity (FIGS. 22-27).

[2] = system: HK-2 cells; assay: Diabetes PCR array in cell model for diabetes (22 mM glucose); format: cell-based, human
Description: The HK-2 and HASMC cells are normally maintained in culture at 5.5 mM glucose, which is a concentration that corresponds to a range considered normal in human blood. However, in order to simulate a diabetic environment, both cell lines were subsequently maintained at 22 mM glucose, which corresponds to the range observed in human blood associated with chronic hyperglycemia. The cells were subsequently allowed to propagate over 3 passages so that the intracellular regulation processes were functionally adapted to mimic a diabetic state. The choice of cell line was based on the physiologic influence of diabetes on renal dysfunction and progression to end-stage renal disease (ESRD) in addition to the progressive pathophysiology of a compromised cardiovascular function.
The Diabetes PCR array (SABiosciences) offers a screen for 84 genes simultaneously.
A stringent analysis of the Real time PCR data of the HK-2 samples on the Diabetes Arrays (Cat # PAHS-023E, SABiosciences Frederick Md.) was made to exclude all results where gene regulation was not at least a two-fold regulation over HK-2 normal untreated cells with a p value of less than 0.05.

[3] = system: Pancreatic Cancer Cells (PaCa2); assay: Real-time PCR Angiogenesis Array; format: cell-based; conditions: 100 uM Q10, various times
Description: Experiments were carried out essentially as described above.

[4] = system: HepG2 liver cancer cells; assay: ApoStrand ELISA apoptosis assay (single-stranded DNA); format: cell-based
Excerpt: The ApoStrand™ ELISA is based on the sensitivity of DNA in apoptotic cells to formamide denaturation and the detection of the denatured DNA with a monoclonal antibody to single-stranded DNA (ssDNA).

[5] = system: HepG2 (liver cancer) cells; assay: PCR Apoptosis Array; format: cell-based
[6] = system: PaCa-2 cells; assay: Extracellular acidification rate (ECAR), SeaHorse XF analyzer; format: cell-based; conditions: normoxia, high glucose (17 mM)
Excerpt: (§1) Environmental influencers (e.g., MIMs or Epi-shifters) may also be identified by changes in cellular energetics. One example of the measurement of cellular energetics are the real-time measures of the consumption of molecular oxygen and/or the change in pH of the media of a cell culture. For example, the ability of a potential epi-shifter to modulate the metabolic state of a cell may be analyzed using, for example, the XF24 Analyzer (Seahorse, Inc.). This technology allows for real time detection of oxygen and pH changes in a monolayer of cells in order to evaluate the bioenergetics of a cell microenvironment. The XF24 Analyzer measures and compares the rates of oxygen consumption (OCR), which is a measure of aerobic metabolism, and extracellular acidification (ECAR), which is a measure of glycolysis, both key indicators of cellular energetics.
(§2) (SeaHorse Biosciences Inc, North Billerica, Mass.).
In contrast to normal cells, cancer cells are phenotypically primed to use high glucose for ATP generation (enhanced glycolysis) resulting in higher ECAR (Table 53, ECAR for untreated normoxia 17 mM) at 21 mpH/min. […] The associated decrease in OCR in these cells was likely associated with increased efficiency of the mitochondrial OXPHOS.

[7] = system: HDFa cells; assay: Oxygen consumption rate (OCR), SeaHorse XF analyzer; format: cell-based, human; conditions: presence of CoQ10
Excerpt: as §1, §2
In this experiment, the OCR and extracellular acidification rate (ECAR) in normal cells lines were obtained in the presence and absence of CoQ10 to determine baseline values. It was observed that in its native nutrient environment, the basal OCR rates in normal cells lines are different, and are usually a function of the physiological roles of the cells in the body. […]

[8] = system: melanoma cell; assay: Bcl2 level after CoQ-10 in the presence of VEGF; format: cell-based

For `COC1=C(OC)C(=O)C(C/C=C(\C)CC/C=C(\C)CC/C=C(\C)CC/C=C(\C)CC/C=C(\C)CC/C=C(\C)CC/C=C(\C)CC/C=C(\C)CC/C=C(\C)CCC=C(C)C)=C(C)C1=O` [Q10, Coenzyme Q10], the “levels of examined proteins (Western blot)” value [1] was “upregulated or downregulated”, the “CEACAM1 RNA transcript” value ([2]; HK2(H) cells, particularly with 100 μM Coenzyme Q10) was “highly upregulated” and the “insulin receptor (INSR) expression” value ([2]; diabetic HK-2 cells) was “altered”. For the same compound, the “genes modulated by Q10 treatment (Angiogenesis arrays)” value [3] was “AKT1, ANGPTL4, ANGPEP, CCL2, CDH4, CXCL1, EDG1, EFNA3, EFNB2, EGF, FGF1, ID3, IL1B, 1L8, KDR, NRP1, PECAM1, PROK2, SERPINF1, SPHK1, STAB1, TGFB1, VEGFA and VEGFB”, the “detectable apoptosis (ApoStrand ELISA)” value ([4]; 50 μM Q10) was 17% and the “detectable apoptosis (ApoStrand ELISA)” value ([4]; 100 μM Q10) was 32%. For the same compound, the “BAG1 mRNA downregulated over control” value ([5]; 100 uM Q10, 16 hours) was “approximately 6 fold”, the “CASP9 mRNA upregulated over control” value ([5]; 100 uM Q10, 16 hours) was “approximately 61 fold” and the “TNFRSF1A mRNA downregulated over control” value ([5]; 100 uM Q10, 16 hours) was roughly 4 fold. The “BAG1 mRNA upregulated over control” value ([5]; 100 uM Q10, 48 hours) was roughly 1 fold, the “CASP9 mRNA upregulated over control” value ([5]; 100 uM Q10, 48 hours) was “approximately 55 fold” and the “TNFRSF1A mRNA upregulated over control” value ([5]; 100 uM Q10, 48 hours) was roughly 1 fold. For the same compound, the ECAR rates [6] was “significant decrease”, the OCR [7] was “influenced OCR” and the “level of Bcl2” value [8] was “decreased level”.
